Patent US5210193A, “Piperazine derivatives” (American Cyanamid Company, priority 1990, dated 1993)
Values after ≈ are worked out from the molar mass of the structure shown. Values joined by “and” are separate entries in the source; they are usually repeats but may differ in a detail not shown here. Identical values can stand only once. Like-named read-outs stand apart in the source and are kept apart here.

How the values were obtained:
Assay in all cases: in vitro antibacterial MIC, agar plate dilution
Format in all cases: cell-based
[1] = system: Pseudomonas aeruginosa VGH 84-3; details: Pseudomonas aeruginosa, VGH843, 18 h, 35° C., read-out: MIC
Outline: (§1)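 Minimal inhibitory concentrations came from agar plate dilution in Mueller-Hinton medium. Each organism was delivered at roughly 10^4 CFU by Steers replicator. Plates were read for visible growth after 18 hours at 35° C, values in mcg/ml.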

[2] = system: Proteus rettgeri IO 83-21; details: Providencia rettgeri, IO8321, 18 h, 35° C., read-out: MIC
Outline: as §1

[3] = system: Morganella morganii CMC 84-38; details: 35° C.
Outline: as §1

[4] = system: Klebsiella pneumoniae IO 83-5; details: Klebsiella pneumoniae, IO835, 18 h, 35° C., read-out: MIC
Outline: as §1

[5] = system: Staphylococcus aureus ATTC 29213; details: 35° C.
Outline: as §1

[6] = system: Streptococcus faecalis UCI 85-30; details: Enterococcus faecalis, UCI8530, 18 h, 35° C., read-out: MIC
Outline: as §1

[7] = system: Staphylococcus aureus VGH 84-45; details: 35° C.
Outline: as §1

[8] = system: Pseudomonas aeruginosa LL-1244; details: Pseudomonas aeruginosa, LL1244, 18 h, 35° C., read-out: MIC
Outline: as §1

[9] = system: Staphylococcus aureus K 82-26; details: Staphylococcus aureus, K8226, 18 h, 35° C., read-out: MIC
Outline: as §1

[10] = system: Escherichia coli MOR 84-20; details: Escherichia coli, MOR8420, 18 h, 35° C., read-out: MIC
Outline: as §1

[11] = system: Serratia marcescens MOR 84-41; details: Serratia marcescens, MOR8441, 18 h, 35° C., read-out: MIC
Outline: as §1

[12] = system: Serratia marcescens IO 83-63; details: IO8363, 18 hours, 35° C.
Outline: as §1

[13] = system: Escherichia coli CMC 84-50; details: Escherichia coli, CMC8450, 18 h, 35° C., read-out: MIC
Outline: as §1

[14] = system: Escherichia coli ATCC 25922; details: 35° C.
Outline: as §1

[15] = system: Citrobacter div. K 82-24; details: Citrobacter, DIV.K8224, 18 h, 35° C., read-out: MIC
Outline: as §1

[16] = system: Klebsiella pneumoniae MOR 84-24; details: Klebsiella pneumoniae, MOR8424, 18 h, 35° C., read-out: MIC
Outline: as §1

[17] = system: Pseudomonas aeruginosa VGH 84-4; details: 35° C.
Outline: as §1

[18] = system: Proteus rettgeri CMC 84-41; details: Providencia rettgeri, CMC8441, 18 h, 35° C., read-out: MIC
Outline: as §1

[19] = system: Staphylococcus aureus CMC 83-131; details: Staphylococcus aureus, CMC83131, 18 h, 35° C., read-out: MIC
Outline: as §1

[20] = system: Pseudomonas aeruginosa K 84-16; details: Pseudomonas aeruginosa, K8416, 18 h, 35° C., read-out: MIC
Outline: as §1

[21] = system: Streptococcus faecalis VGH 84-65; details: Enterococcus faecalis, VGH8465, 18 h, 35° C., read-out: MIC
Outline: as §1

[22] = system: Enterobacter cloacae K 84-10; details: Enterobacter cloacae, K8410, 18 h, 35° C., read-out: MIC
Outline: as §1

[23] = system: Escherichia coli LL 311; details: Escherichia coli, LL311, 18 h, 35° C., read-out: MIC
Outline: as §1

[24] = system: Enterobacter cloacae VGH 84-39; details: Enterobacter cloacae, VGH8439, 18 h, 35° C., read-out: MIC
Outline: as §1

[25] = system: Staphylococcus aureus VGH 84-47; details: Staphylococcus aureus, VGH8447, 18 h, 35° C., read-out: MIC
Outline: as §1

[26] = system: Serratia marcescens CMC 83-74; details: Serratia marcescens, CMC8374, 18 h, 35° C., read-out: MIC
Outline: as §1

[27] = system: Klebsiella pneumoniae CMC 84-31; details: Klebsiella pneumoniae, CMC8431, 18 h, 35° C., read-out: MIC
Outline: as §1

[28] = system: Streptococcus faecalis UCI 85-19; details: Enterococcus faecalis, UCI8519, 18 h, 35° C., read-out: MIC
Outline: as §1

[29] = system: Serratia marcescens VGH 84-30; details: Serratia marcescens, VGH8430, 18 h, 35° C., read-out: MIC
Outline: as §1

[30] = system: Streptococcus faecalis VGH 84-69; details: Enterococcus faecalis, VGH8469, 18 h, 35° C., read-out: MIC
Outline: as §1

[31] = system: Escherichia coli CMC 84-11; details: Escherichia coli, CMC8411, 18 h, 35° C., read-out: MIC
Outline: as §1

[32] = system: Morganella morganii CMC 84-37; details: 18 hours, 35° C.
Outline: as §1

Row | MIC [1] | MIC [2] | MIC [4] | MIC [6] | MIC [9] | MIC [10] | MIC [11] | MIC [12] | MIC [13] | MIC [15] | MIC [16] | MIC [18] | MIC [19] | MIC [20] | MIC [24] | MIC [25] | MIC [26] | MIC [27] | MIC [30] | MIC [31] | SMILES | further results
1 | > 16 µg/mL | > 16 µg/mL | > 16 µg/mL | > 16 µg/mL | > 16 µg/mL | > 16 µg/mL | > 16 µg/mL | > 16 µg/mL | > 16 µg/mL | > 16 µg/mL | > 16 µg/mL | 32 µg/mL (≈ 77.4 µM) | 2 µg/mL (≈ 4.84 µM) | > 16 µg/mL | > 16 µg/mL | 2 µg/mL (≈ 4.84 µM) | > 16 µg/mL | > 16 µg/mL | > 16 µg/mL | 16 µg/mL (≈ 38.7 µM) | CCn1cc(C(=O)O)c(=O)c2cc(F)c(N3CCN(C)C(c4ccn(C)n4)C3)cc21 (stereo not drawn) [Example 109, 1-Ethyl-6-fluoro-1,4-dihydro-7-[4-methyl-3-(1-methyl-1H-pyrazol-3-yl) -1-piperazinyl]-4-oxo-3-quinolinecarboxylic acid] | MIC ([3]; Morganella morganii, CMC8438, 18 h, read-out: MIC): > 16 µg/mL; MIC ([5]; 18 hours): 1 µg/mL (≈ 2.42 µM); MIC ([5]; Staphylococcus aureus, ATTC29213, 18 h, read-out: MIC): 0.5 µg/mL (≈ 1.21 µM); MIC ([7]; Staphylococcus aureus, VGH8445, 18 h, read-out: MIC): 0.5 µg/mL (≈ 1.21 µM); MIC [8]: > 128 µg/mL; MIC ([14]; Escherichia coli, ATCC25922, 18 h, read-out: MIC): 8 µg/mL (≈ 19.3 µM); MIC ([17]; Pseudomonas aeruginosa, VGH844, 18 h, read-out: MIC): > 128 µg/mL; MIC [21]: 16 µg/mL (≈ 38.7 µM); MIC [22]: 16 µg/mL (≈ 38.7 µM); MIC [23]: 8 µg/mL (≈ 19.3 µM); MIC [28]: 16 µg/mL (≈ 38.7 µM); MIC [29]: > 128 µg/mL
2 | > 16 µg/mL | 0.25 µg/mL (≈ 0.629 µM) | 0.25 µg/mL (≈ 0.629 µM) | 1 µg/mL (≈ 2.52 µM) | 0.06 µg/mL (≈ 0.151 µM) | 0.06 µg/mL (≈ 0.151 µM) | 0.5 µg/mL (≈ 1.26 µM) | 1 µg/mL (≈ 2.52 µM) | 0.12 µg/mL (≈ 0.302 µM) | 0.12 µg/mL (≈ 0.302 µM) | 0.25 µg/mL (≈ 0.629 µM) | 0.06 µg/mL (≈ 0.151 µM) | 0.25 µg/mL (≈ 0.629 µM) | 8 µg/mL (≈ 20.1 µM) | 0.12 µg/mL (≈ 0.302 µM) | 0.03 µg/mL (≈ 0.0755 µM) | 16 µg/mL (≈ 40.3 µM) | 0.12 µg/mL (≈ 0.302 µM) | 0.5 µg/mL (≈ 1.26 µM) | 0.03 µg/mL (≈ 0.0755 µM) | O=C(O)c1cn(C2CC2)c2cc(N3CCNC(c4ccco4)C3)c(F)cc2c1=O (stereo not drawn) [Example 62, 1-Cyclopropyl-6-fluoro-7-[3-(2-furanvl)-1-piperazinyl]-1,4-dihydro-4-oxo-3-quinolinecarboxylic acid] | MIC ([3]; 18 hours): 0.25 µg/mL (≈ 0.629 µM); MIC ([7]; 18 hours): 0.015 µg/mL (≈ 0.0377 µM); MIC ([14]; 18 hours): 0.03 µg/mL and 0.06 µg/mL; MIC ([17]; 18 hours): 1 µg/mL (≈ 2.52 µM); MIC [32]: 0.06 µg/mL (≈ 0.151 µM)
